Patent US11878973B2, “Bicyclic compounds and their uses” (NOVARTIS AG, priority 2021, dated 2024)
Read-outs that look alike come from different tables or passages of the source.

How the values were obtained:
[1] = molecular target: WRN helicase (Homo sapiens (Human), UniProt Q14191); assay: In vitro enzymatic activity assay on WRN helicase (DNA dependent ATPase assay, ADP-Glo); type: biochemical; conditions: geometric means of at least 2 determinations; read-out: WRN ATPase Activity (IC50)
Description: An ATPase assay was set up to measure the DNA dependent ATP hydrolysis activity of WRN helicase. This assay was used also to assess the inhibition properties of compounds of the invention on DNA dependent WRN ATPase activity.
The core helicase motif of the WRN protein (aa N517-P1238) was produced for this assay (protein production as described above). […] The ADP-Glo assay kit (Promega, Madison, WI) allowing the quantification of ADP produced in ATP hydrolysis reactions was used for setting up this assay.
Time course experiments were first performed in order to determine the best enzymatic assay conditions (including buffer conditions, reaction time and concentrations of protein, ATP and DNA substrates). A typical reaction consists of 10 nM WRN protein, 0.2 nM FLAP26, and 300 micromolar ATP in the following assay buffer: 30 mM Tris pH7.5, 2 mM MgCl2, 0.02% BSA, 50 mM NaCl, 0.1% pluronic F127 prepared in DNAse free water. To evaluate the inhibition properties of compounds of the invention, serial dilutions were prepared in DMSO (10 half log dilutions from a 10 mM DMSO solution). […] The reaction was started by addition of 2.5 microliters of FLAP26 at 0.4 nM and incubated for 30 minutes at room temperature. The reaction was stopped with the addition of 5 microliters of the first ADP-Glo reagent and incubated for one hour to remove the excess amount of ATP. Afterwards, 10 microliters of ATP detection reagent was added and incubated for an additional hour before reading. Luminescence output was recorded using Tecan 1000 reader, with 5 minutes delay before reading. Each concentration of compound was tested in duplicates in the assay plate.
Following normalization of activity values for the wells to % inhibition (% inhibition=[(high control-sample)/(high control-low control)]×100), IC50 fitting was carried out from the duplicate determinations present on each plate according to [4]. Data analysis can also be carried out using commercially available software designed to derive IC50 values using 4-parameter fits (e.g. GraphPad Prism, XL fit). The reported IC50 values are the geometrical means of at least 2 independent replicates.

[2] = tested on: SW48 cells; assay: Proliferation assay SW48 (CellTiterGlo, 96 hours)
[3] = tested on: DLD1-WRN-KO cells; assay: Proliferation assay DLD1-WRN-KO (CellTiterGlo, 96 hours; off-target effects); conditions: read-out: Proliferation Assay DLD1-WRN-KO (GI50)
Description: The WRN-knockdown insensitive colon carcinoma cell line DLD-1 (RRID: CVCL_0248) was obtained from the Korean Cell Line Bank (KCLB), and used to generate a derivative in which the endogenous WRN gene copies were knocked out by CRISPR-mediated editing using standard CRISPR methods. The resulting cell line, DLD1-WRN—KO, was used to assess potential off-target compound effects.
All cells were maintained at 37° C. in a humidified 5% CO2 incubator.
For data analysis, the assay background signal that was determined in wells containing medium, but no cells, was subtracted from all other data points prior to further calculations. The extent of growth inhibition and potential cell kill was assessed by comparing the ATP levels (measured using CellTiterGlo, Promega) in compound-treated cells with those present at the time of compound addition. […] 100%, 0% and −100% signify absence of growth inhibition, growth stasis, and complete cell kill, respectively. Compound concentrations leading to half-maximal growth inhibition (G150) and residual cell viability at the highest tested compound concentration (Data (cmax), expressed in percent) were routinely calculated. Data analysis can also be carried out using commercially available software designed to derive IC50 values using 4-parameter fits (e.g. GraphPad Prism, XL fit). The reported GI50 values are the geometrical means of at least 2 independent replicates.

[4] = Homo sapiens, SW48, read-out: Proliferation Assay SW48 (GI50)
[5] = read-out: Proliferation Assay SW48 (GI50), SW48 cell line, geometric means of at least 2 determinations
[6] = DLD1-WRN-KO cell line, geometric means of at least 2 determinations

WRN helicase, sequence (Q14191 517-1238): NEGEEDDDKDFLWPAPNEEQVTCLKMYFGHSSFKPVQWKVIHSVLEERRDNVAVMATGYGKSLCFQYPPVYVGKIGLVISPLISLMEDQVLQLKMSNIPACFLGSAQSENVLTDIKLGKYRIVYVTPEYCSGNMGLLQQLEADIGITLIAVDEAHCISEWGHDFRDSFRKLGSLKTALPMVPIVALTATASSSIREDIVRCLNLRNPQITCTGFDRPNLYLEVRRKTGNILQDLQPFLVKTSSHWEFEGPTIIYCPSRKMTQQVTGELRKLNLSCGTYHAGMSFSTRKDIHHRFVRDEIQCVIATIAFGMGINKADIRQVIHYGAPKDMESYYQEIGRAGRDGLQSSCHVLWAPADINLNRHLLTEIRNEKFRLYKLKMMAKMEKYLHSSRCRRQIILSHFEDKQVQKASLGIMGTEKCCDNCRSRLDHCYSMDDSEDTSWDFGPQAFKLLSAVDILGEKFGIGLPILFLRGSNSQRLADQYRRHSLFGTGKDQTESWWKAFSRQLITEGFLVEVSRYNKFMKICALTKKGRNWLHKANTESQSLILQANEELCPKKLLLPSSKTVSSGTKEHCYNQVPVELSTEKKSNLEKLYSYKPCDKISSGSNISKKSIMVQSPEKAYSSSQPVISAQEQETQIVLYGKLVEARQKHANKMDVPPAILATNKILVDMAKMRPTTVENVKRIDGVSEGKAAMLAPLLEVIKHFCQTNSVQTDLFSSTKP

| Compound | IC50 [1] [nM] | GI50 [2, 4] [nM] | GI50 ([3]; Homo sapiens) [nM] | GI50 [2, 5] [nM] | GI50 [3, 6] [nM] |
| --- | --- | --- | --- | --- | --- |
| CCc1c(N2CCN(C(=O)c3ncnc(C)c3O)CC2)c(=O)n2nc(C3=CCOCC3)nc2n1CC(=O)Nc1cc(F)c(C=O)cc1C [Example 54, 2-(2-(3,6-dihydro-2H-pyran-4-yl)-5-ethyl-6-(4-(5-hydroxy-6-methylpyrimidine-4-carbonyl)piperazin-1-yl)-7-oxo-[1,2,4]triazolo[1,5-a]pyrimidin-4(7H)-yl)-N-(5-fluoro-4-formyl-2-methylphenyl)acetamide] | 1300 | 6010 | > 10000 |  |  |
| CCc1c(N2CCN(C(=O)c3ncccc3O)CC2)c(=O)n2nc(N3CCC[C@@H](F)C3)nc2n1CC(=O)Nc1ccc(C(F)(F)F)cc1Cl (single isomer, unassigned) [Example 15a, ((R)—N-(2-chloro-4-(trifluoromethyl)phenyl)-2-(5-ethyl-2-(3-fluoropiperidin-1-yl)-6-(4-(3-hydroxypicolinoyl)piperazin-1-yl)-7-oxo-[1,2,4]triazolo[1,5-a]pyrimidin-4(7H)-yl)acetamide) or ((S)—N-(2-chloro-4-(trifluoromethyl)phenyl)-2-(5-ethyl-2-(3-fluoropiperidin-1-yl)-6-(4-(3-hydroxypicolinoyl)piperazin-1-yl)-7-oxo-[1,2,4]triazolo[1,5-a]pyrimidin-4(7H)-yl)acetamide)] | 140 |  |  | 400 | > 10000 |
| CCc1c(N2CCN(C(=O)c3ncccc3O)CC2)c(=O)n2nc(C3=CCC(OC)CC3)nc2n1CC(=O)Nc1ccc(C(F)(F)F)nc1C (racemic) [Example 26, rac-2-(5-ethyl-6-(4-(3-hydroxypicolinoyl)piperazin-1-yl)-2-(4-methoxycyclohex-1-en-1-yl)-7-oxo-[1,2,4]triazolo[1,5-a]pyrimidin-4(7H)-yl)-N-(2-methyl-6-(trifluoromethyl)pyridin-3-yl)acetamide] | 250 | 80 | > 10000 |  |  |
| CCc1c(N2CCN(C(=O)c3ncccc3O)CC2)c(=O)n2nc(C3=CCCCO3)nc2n1CC(=O)Nc1ccc(C(F)(F)F)nc1C [Example 55, 2-(2-(3,4-dihydro-2H-pyran-6-yl)-5-ethyl-6-(4-(3-hydroxypicolinoyl)piperazin-1-yl)-7-oxo-[1,2,4]triazolo[1,5-a]pyrimidin-4(7H)-yl)-N-(2-methyl-6-(trifluoromethyl)pyridin-3-yl)acetamide] | 200 | 100 | > 10000 |  |  |
| CCc1c(N2CCN(C(=O)c3nccc(Cl)c3O)CC2)c(=O)n2nc(C3=CCOCC3)nc2n1CC(=O)Nc1ccc(C(F)(F)F)nc1Cl [Example 46, 2-(6-(4-(4-chloro-3-hydroxypicolinoyl)piperazin-1-yl)-2-(3,6-dihydro-2H-pyran-4-yl)-5-ethyl-7-oxo-[1,2,4]triazolo[1,5-a]pyrimidin-4(7H)-yl)-N-(2-chloro-6-(trifluoromethyl)pyridin-3-yl)acetamide] | 110 | 110 | > 10000 |  |  |
| CCc1c(N2CCN(C(=O)c3ncccc3O)CC2)c(=O)n2nc(C3=CC[C@H](OC)CC3)nc2n1CC(=O)Nc1ccc(C(F)(F)F)nc1Cl (single isomer, unassigned) [Example 25b, ((R)—N-(2-chloro-6-(trifluoromethyl)pyridin-3-yl)-2-(5-ethyl-6-(4-(3-hydroxypicolinoyl)piperazin-1-yl)-2-(4-methoxycyclohex-1-en-1-yl)-7-oxo-[1,2,4]triazolo[1,5-a]pyrimidin-4(7H)-yl)acetamide) or ((S)—N-(2-chloro-6-(trifluoromethyl)pyridin-3-yl)-2-(5-ethyl-6-(4-(3-hydroxypicolinoyl)piperazin-1-yl)-2-(4-methoxycyclohex-1-en-1-yl)-7-oxo-[1,2,4]triazolo[1,5-a]pyrimidin-4(7H)-yl)acetamide)] | 100 |  |  | 50 | > 10000 |
| CCc1c(N2CCN(C(=O)c3nccc(Cl)c3O)CC2)c(=O)n2nc(C3=CC[C@H](OC)CC3)nc2n1CC(=O)Nc1ccc(C(F)(F)F)nc1Cl (single isomer, unassigned) [Example 24b] | 100 |  |  | 50 | > 10000 |

The remaining lines, values ahead:

| IC50 [1] [nM] | GI50 [2, 4] [nM] | GI50 ([3]; Homo sapiens) [nM] | GI50 [2, 5] [nM] | GI50 [3, 6] [nM] | Compound |
| --- | --- | --- | --- | --- | --- |
| 80 | 70 | > 10000 |  |  | CCc1c(N2CCN(C(=O)c3ncnc(C)c3O)CC2)c(=O)n2nc(C3=CCOCC3)nc2n1CC(=O)Nc1ccc(C(F)(F)F)c(F)c1C [Example 93, 2-(2-(3,6-dihydro-2H-pyran-4-yl)-5-ethyl-6-(4-(5-hydroxy-6-methylpyrimidine-4-carbonyl)piperazin-1-yl)-7-oxo-[1,2,4]triazolo[1,5-a]pyrimidin-4(7H)-yl)-N-(3-fluoro-2-methyl-4-(trifluoromethyl)phenyl)acetamide] |
| 100 | 250 | > 10000 |  |  | CCc1c(N2CCN(C(=O)c3ncccc3O)CC2)c(=O)n2nc(C3=CCOCC3)nc2n1CC(=O)Nc1cc(C(F)(F)F)c(Cl)cc1C [Example 103, N-(4-chloro-2-methyl-5-(trifluoromethyl)phenyl)-2-(2-(3,6-dihydro-2H-pyran-4-yl)-5-ethyl-6-(4-(3-hydroxypicolinoyl)piperazin-1-yl)-7-oxo-[1,2,4]triazolo[1,5-a]pyrimidin-4(7H)-yl)acetamide] |
| 80 | 320 | > 10000 |  |  | Cc1ccc(O)c(C(=O)N2CCN(c3c(C)n(CC(=O)Nc4ccc(C(F)(F)F)cc4)c4nc(C5=CCOCC5)nn4c3=O)CC2)n1 [Example 91, 2-(2-(3,6-dihydro-2H-pyran-4-yl)-6-(4-(3-hydroxy-6-methylpicolinoyl)piperazin-1-yl)-5-methyl-7-oxo-[1,2,4]triazolo[1,5-a]pyrimidin-4(7H)-yl)-N-(4-(trifluoromethyl)phenyl)acetamide] |
| 50 | 70 | > 10000 |  |  | CCc1c(N2CCN(C(=O)c3nc(C)ccc3O)CC2)c(=O)n2nc(C3=CCOCC3)nc2n1CC(=O)Nc1ccc(C(F)(F)F)cc1 [Example 74, 2-(2-(3,6-dihydro-2H-pyran-4-yl)-5-ethyl-6-(4-(3-hydroxy-6-methylpicolinoyl)piperazin-1-yl)-7-oxo-[1,2,4]triazolo[1,5-a]pyrimidin-4(7H)-yl)-N-(4-(trifluoromethyl)phenyl)acetamide] |
| 50 | 50 | > 10000 |  |  | CCc1c(N2CCN(C(=O)c3nc(C)cc(F)c3O)CC2)c(=O)n2nc(C3=CCOCC3)nc2n1CC(=O)Nc1ccc(C(F)(F)F)cc1C [Example 62, 2-(2-(3,6-dihydro-2H-pyran-4-yl)-5-ethyl-6-(4-(4-fluoro-3-hydroxy-6-methylpicolinoyl)piperazin-1-yl)-7-oxo-[1,2,4]triazolo[1,5-a]pyrimidin-4(7H)-yl)-N-(2-methyl-4-(trifluoromethyl)phenyl)acetamide] |
| 160 | 250 | > 10000 |  |  | CCc1c(N2CCN(C(=O)c3nccc(Cl)c3O)CC2)c(=O)n2nc(C3=CCCCO3)nc2n1CC(=O)Nc1ccc(C(F)(F)F)nc1C [Example 56, 2-(6-(4-(4-chloro-3-hydroxypicolinoyl)piperazin-1-yl)-2-(3,4-dihydro-2H-pyran-6-yl)-5-ethyl-7-oxo-[1,2,4]triazolo[1,5-a]pyrimidin-4(7H)-yl)-N-(2-methyl-6-(trifluoromethyl)pyridin-3-yl)acetamide] |
| 280 | 7720 | > 10000 |  |  | CCc1c(N2CCN(C(=O)c3ncccc3O)CC2)c(=O)n2nc(N3CCN(CC(=O)O)CC3)nc2n1CC(=O)Nc1ccc(C(F)(F)F)cc1Cl [Example 82, 2-(4-(4-(2-((2-chloro-4-(trifluoromethyl)phenyl)amino)-2-oxoethyl)-5-ethyl-6-(4-(3-hydroxypicolinoyl)piperazin-1-yl)-7-oxo-4,7-dihydro-[1,2,4]triazolo[1,5-a]pyrimidin-2-yl)piperazin-1-yl)acetic acid] |
| 500 | 2550 | > 10000 |  |  | Cc1nc(C(F)(F)F)ccc1NC(=O)Cn1c(C)c(N2CCN(C(=O)c3ncccc3O)CC2)c(=O)n2nc(C3=CCOCC3)nc12 [Example 129, 2-(2-(3,6-dihydro-2H-pyran-4-yl)-6-(4-(3-hydroxypicolinoyl)piperazin-1-yl)-5-methyl-7-oxo-[1,2,4]triazolo[1,5-a]pyrimidin-4(7H)-yl)-N-(2-methyl-6-(trifluoromethyl)pyridin-3-yl)acetamide] |
